Experimental data reported in paper PMC6857051, “Proliferative regulation of alveolar epithelial type 2 progenitor cells by human Scnn1d gene” (Theranostics, 2019).
Where two headings read alike, the source gives them in different places.

Target: T1, human δ802βγ ENaC (Homo sapiens, UniProt P51168+P51170+P51172)
T1 construct: Bioelectric features of full-length human δ802 epithelial sodium channels (ENaC) in Xenopus oocytes; expressed in transfected cells; host or cells: Xenopus laevis oocytes injected with cRNA (pGEM HE vector)
T1 sequence (P51172 1-802): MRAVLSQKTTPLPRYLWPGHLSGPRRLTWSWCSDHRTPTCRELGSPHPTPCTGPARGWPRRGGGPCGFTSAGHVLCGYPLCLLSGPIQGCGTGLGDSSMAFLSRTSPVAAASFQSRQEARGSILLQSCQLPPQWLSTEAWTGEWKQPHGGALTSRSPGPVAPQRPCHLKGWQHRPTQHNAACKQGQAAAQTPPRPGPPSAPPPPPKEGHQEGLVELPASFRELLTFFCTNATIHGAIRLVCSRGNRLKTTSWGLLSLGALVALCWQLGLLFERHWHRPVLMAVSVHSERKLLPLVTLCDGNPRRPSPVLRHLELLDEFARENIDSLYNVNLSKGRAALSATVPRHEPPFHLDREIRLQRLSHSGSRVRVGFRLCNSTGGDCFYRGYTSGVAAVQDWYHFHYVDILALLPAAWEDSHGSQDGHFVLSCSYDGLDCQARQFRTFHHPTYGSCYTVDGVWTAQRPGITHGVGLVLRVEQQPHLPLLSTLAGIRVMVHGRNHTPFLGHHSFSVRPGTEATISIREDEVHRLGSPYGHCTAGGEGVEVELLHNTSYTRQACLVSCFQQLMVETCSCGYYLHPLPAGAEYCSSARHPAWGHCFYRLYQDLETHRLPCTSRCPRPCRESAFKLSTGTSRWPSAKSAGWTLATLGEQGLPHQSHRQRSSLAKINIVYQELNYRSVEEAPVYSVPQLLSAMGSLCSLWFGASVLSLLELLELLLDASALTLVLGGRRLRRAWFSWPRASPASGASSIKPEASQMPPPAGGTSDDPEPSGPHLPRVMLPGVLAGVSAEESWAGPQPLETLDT
T1 sequence (P51168 1-640): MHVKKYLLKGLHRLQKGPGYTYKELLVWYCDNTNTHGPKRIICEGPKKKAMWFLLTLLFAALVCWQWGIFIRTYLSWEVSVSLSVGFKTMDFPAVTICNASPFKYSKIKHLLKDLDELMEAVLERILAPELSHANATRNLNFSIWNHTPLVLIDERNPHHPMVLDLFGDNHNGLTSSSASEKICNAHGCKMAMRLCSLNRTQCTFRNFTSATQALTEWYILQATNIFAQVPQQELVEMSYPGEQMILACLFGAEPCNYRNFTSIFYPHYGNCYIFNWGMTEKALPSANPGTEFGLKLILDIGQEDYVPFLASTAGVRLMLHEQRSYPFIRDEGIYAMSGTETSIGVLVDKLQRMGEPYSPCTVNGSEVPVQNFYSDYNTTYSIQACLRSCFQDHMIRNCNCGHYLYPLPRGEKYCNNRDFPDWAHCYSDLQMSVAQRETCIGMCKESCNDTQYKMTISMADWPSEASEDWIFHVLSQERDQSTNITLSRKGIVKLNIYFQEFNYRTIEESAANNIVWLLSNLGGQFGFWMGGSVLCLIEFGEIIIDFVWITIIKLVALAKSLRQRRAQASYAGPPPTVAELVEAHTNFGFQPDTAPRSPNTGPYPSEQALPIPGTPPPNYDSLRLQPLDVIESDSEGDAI
T1 sequence (P51170 1-649): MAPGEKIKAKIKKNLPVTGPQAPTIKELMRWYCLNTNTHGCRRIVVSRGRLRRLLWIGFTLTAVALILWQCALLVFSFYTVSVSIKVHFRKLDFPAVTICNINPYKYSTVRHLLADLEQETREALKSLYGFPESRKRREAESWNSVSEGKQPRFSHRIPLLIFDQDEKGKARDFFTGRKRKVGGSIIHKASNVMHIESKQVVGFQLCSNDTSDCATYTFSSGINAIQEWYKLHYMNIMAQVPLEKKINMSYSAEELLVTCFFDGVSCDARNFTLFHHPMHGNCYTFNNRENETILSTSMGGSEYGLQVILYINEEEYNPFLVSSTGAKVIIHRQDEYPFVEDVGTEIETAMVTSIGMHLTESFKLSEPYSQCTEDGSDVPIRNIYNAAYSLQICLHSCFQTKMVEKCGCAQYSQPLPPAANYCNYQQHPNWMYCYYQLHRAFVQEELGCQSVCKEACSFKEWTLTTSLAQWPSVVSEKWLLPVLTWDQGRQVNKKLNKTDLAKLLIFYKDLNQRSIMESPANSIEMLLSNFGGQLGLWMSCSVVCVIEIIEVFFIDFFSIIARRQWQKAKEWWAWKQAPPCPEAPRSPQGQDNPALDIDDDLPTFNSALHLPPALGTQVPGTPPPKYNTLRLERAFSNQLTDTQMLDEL
Assay: Two-electrode voltage clamp of δ802βγ-ENaC expressed in Xenopus oocytes
Type: cell-based
Description: Cloning, in vitro transcription, and heterologous expression of δ802 ENaC and two-electrode voltage clamping assay. δ802 and other ENaC subunits were generated in human ENaC cDNAs cloned into a pGEM HE vector [4], [76]. cRNAs of human α, β, and γ ENaC were prepared as described previously. The stoichiometry of native ENaC complexes is unclear to date. Based on the studies in the last decade, several models have been proposed for αβγ ENaC channels: 1α1β1γ, 2α1β1γ, 3α3β3γ. Based on the EM structure of human αβγ ENaC [35], the currently acceptable model of human αβγ ENaC complexes is heterotrimeric (1α1β1γ). Thus we microinjected δ802:β:γ in a 1:1:1 subunit ratio. Oocytes were surgically removed from appropriately anesthetized adult female Xenopus laevis (Xenopus Express). Briefly, the ovarian tissue was removed from the frog under anesthesia by tricaine-S (Western Chemicals) through a small incision in the lower abdomen. Ovarian lobes were removed and digested in OR-2 calcium-free medium (in mM: 82.5 NaCl, 2.5 KCl, 1.0 MgCl2, 1.0 Na2HPO4, and 10.0 HEPES, pH 7.5) with the addition of 2 mg/ml collagenase (Roche, Indianapolis). Defolliculated oocytes were injected with ENaC cRNAs into the cytosol (25 ng per oocyte in 50 nl of RNase-free water) and incubated in regular OR-2 medium at 18°C. The two-electrode voltage-clamp technique was used to record whole-cell currents 48 h post injection. Oocytes were impaled with two electrodes filled with 3M KCl, having resistance of 0.5 - 2 MΩ. A TEV-200A voltage-clamp amplifier (Dagan) was used to clamp oocytes with concomitant recording of currents. Two reference electrodes were connected to the bath. The continuously perfused bathing solution was ND-96 medium (in mM: 96.0 NaCl, 1.0 MgCl2, 1.8 CaCl2, 2.5 KCl, and 5.0 HEPES, pH 7.5). Whole-cell currents were recorded as previously reported. Experiments were controlled by pCLAMP 10.7 software (Molecular Devices), and currents at -40 mV, -100 mV, and +80 mV were continuously monitored with data recorded at intervals of 10 sec. Data were sampled at the rate of 200 Hz and filtered at 50 Hz.

In the case of N=C(N)NC(=O)c1nc(Cl)c(N)nc1N [amiloride], the IC50 (accumulating doses perfused to oocytes expressing δ802βγ-ENaC, n=17, mean ± s.e.m., SEM, read-out: IC50 value, dose-response curve fitted with the Hill equation) is reported as 1690 ± 300 nM.

For Ac-LRGTLPHPLQRLR-NH2 [α-13 peptide], the “effect on δ802βγ-ENaC activity” value (300 μM, -100 mV, n=5) was “slightly elevated” and the IC50 (oocytes, current at -100 mV, n=3, Chi^2 = 0.77, R^2 = 0.86, legend prints δ802βγ, read-out: IC50, dotted line (for δ802βγ) (Hill equation)) was 40 ± 70 nM.

B1: plasmin: serine protease of the plasmin(ogen) signal pathway for fibrinolysis (protein, UniProt P00747 20-580; P00747 581-810, looked up)
Plasmin heavy chain A: EPLDDYVNTQGASLFSVTKKQLGAGSIEECAAKCEEDEEFTCRAFQYHSKEQQCVIMAENRKSSIIIRMRDVVLFEKKVYLSECKTGNGKNYRGTMSKTKNGITCQKWSSTSPHRPRFSPATHPSEGLEENYCRNPDNDPQGPWCYTTDPEKRYDYCDILECEEECMHCSGENYDGKISKTMSGLECQAWDSQSPHAHGYIPSKFPNKNLKKNYCRNPDRELRPWCFTTDPNKRWELCDIPRCTTPPPSSGPTYQCLKGTGENYRGNVAVTVSGHTCQHWSAQTPHTHNRTPENFPCKNLDENYCRNPDGKRAPWCHTTNSQVRWEYCKIPSCDSSPVSTEQLAPTAPPELTPVVQDCYHGDGQSYRGTSSTTTTGKKCQSWSSMTPHRHQKTPENYPNAGLTMNYCRNPDADKGPWCFTTDPSVRWEYCNLKKCSGTEASVVAPPPVVLLPDVETPSEEDCMFGNGKGYRGKRATTVTGTPCQDWAAQEPHRHSIFTPETNPRAGLEKNYCRNPDGDVGGPWCYTTNPRKLYDYCDVPQCAAPSFDCGKPQVEPKKCPGR
Plasmin light chain B: VVGGCVAHPHSWPWQVSLRTRFGMHFCGGTLISPEWVLTAAHCLEKSPRPSSYKVILGAHQEVNLEPHVQEIEVSRLFLEPTRKDIALLKLSSPAVITDKVIPACLPSPNYVVADRTECFITGWGETQGTFGAGLLKEAQLPVIENKVCNRYEFLNGRVQSTELCAGHLAGGTDSCQGDSGGPLVCFEKDKYILQGVTSWGLGCARPNKPGVYVRVSRFVTWIEGVMRNN
modifications: Plasmin
notes: serine protease of the plasmin(ogen) signal pathway for fibrinolysis
In the case of B1, the “effect of serine protease incubation on δ802βγ activity” value (oocytes, -100 mV, tc-uPA 10 μg/ml, time course in minutes) is reported as “activated the δ802βγ activity in minutes”.
